How the values were obtained:
[1] = Octanol-water partitioning co-efficient, log D of the compound at pH 7.4 by LC/MS/MS analysis; type: physicochemical
Glucocorticoid receptor = molecular target: T1, Glucocorticoid receptor (Homo sapiens, UniProt P04150)
T1 sequence (P04150 whole entry): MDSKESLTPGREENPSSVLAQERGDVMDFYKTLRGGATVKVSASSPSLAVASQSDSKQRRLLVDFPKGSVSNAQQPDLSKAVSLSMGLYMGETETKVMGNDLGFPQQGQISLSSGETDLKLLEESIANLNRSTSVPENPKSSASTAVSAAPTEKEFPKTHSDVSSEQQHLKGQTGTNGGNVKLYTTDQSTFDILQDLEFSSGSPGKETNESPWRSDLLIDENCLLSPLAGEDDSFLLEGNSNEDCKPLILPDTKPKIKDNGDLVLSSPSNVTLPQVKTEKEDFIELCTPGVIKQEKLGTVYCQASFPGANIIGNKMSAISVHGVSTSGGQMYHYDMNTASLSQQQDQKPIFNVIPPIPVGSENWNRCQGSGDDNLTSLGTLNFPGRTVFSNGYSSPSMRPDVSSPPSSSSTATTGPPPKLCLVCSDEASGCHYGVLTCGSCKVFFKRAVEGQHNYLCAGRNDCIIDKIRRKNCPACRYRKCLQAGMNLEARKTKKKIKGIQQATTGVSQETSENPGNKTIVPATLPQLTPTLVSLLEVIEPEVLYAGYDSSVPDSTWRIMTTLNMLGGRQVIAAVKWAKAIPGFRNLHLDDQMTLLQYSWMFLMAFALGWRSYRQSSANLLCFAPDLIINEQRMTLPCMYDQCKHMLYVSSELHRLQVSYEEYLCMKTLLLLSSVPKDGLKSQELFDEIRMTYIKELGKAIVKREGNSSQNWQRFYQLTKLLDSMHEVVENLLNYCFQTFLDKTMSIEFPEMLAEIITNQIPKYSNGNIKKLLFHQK
Description: Binding affinity to recombinant human GR LBD by fluormone GS red-fluorescence polarization assay

[2] = Apparent permeability in human Caco2 cells at 10 uM after 45 to 120 mins by LC/MS/MS analysis; type: ADME, cell-based; conditions: Caco-2
[3] = Intrinsic clearance in human hepatocytes assessed per million cells at 1 uM measured up to 120 mins in presence of NADPH by LC-MS/MS analysis; type: ADME, cell-based, Hepatocyte; conditions: read-out: CLH
[4] = molecular target: T2, Mineralocorticoid receptor (Homo sapiens, UniProt P08235)
T2 sequence (P08235 whole entry): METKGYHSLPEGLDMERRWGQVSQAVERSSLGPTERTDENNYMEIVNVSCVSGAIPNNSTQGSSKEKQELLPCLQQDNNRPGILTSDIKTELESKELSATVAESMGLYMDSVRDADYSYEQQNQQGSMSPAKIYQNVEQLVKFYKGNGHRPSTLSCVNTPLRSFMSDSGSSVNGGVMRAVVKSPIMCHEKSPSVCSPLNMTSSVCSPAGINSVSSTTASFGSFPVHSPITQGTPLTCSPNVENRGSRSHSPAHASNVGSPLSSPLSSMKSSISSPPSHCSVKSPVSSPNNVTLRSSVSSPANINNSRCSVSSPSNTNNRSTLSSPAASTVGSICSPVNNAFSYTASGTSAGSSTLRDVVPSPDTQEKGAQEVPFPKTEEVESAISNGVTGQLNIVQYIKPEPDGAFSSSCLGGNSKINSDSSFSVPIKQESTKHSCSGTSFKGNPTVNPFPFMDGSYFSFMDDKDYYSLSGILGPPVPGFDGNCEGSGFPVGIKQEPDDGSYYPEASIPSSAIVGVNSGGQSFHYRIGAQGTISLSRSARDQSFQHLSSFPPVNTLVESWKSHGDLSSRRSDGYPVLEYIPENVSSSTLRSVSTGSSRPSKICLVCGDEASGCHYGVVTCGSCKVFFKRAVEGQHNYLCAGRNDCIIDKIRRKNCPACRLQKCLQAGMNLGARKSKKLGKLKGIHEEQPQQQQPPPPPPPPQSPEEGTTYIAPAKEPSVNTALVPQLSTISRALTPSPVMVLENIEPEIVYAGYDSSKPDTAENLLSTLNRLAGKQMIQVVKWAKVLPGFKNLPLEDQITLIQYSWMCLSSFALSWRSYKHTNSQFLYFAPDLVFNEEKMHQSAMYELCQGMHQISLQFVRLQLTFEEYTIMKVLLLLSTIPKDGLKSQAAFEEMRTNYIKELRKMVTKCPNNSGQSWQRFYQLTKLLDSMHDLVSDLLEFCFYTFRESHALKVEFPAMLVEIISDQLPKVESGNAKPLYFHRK
Description: Antagonist activity at gal4-fused human mineralocorticoid receptor LBD expressed in UAS-MR-bla HEK293 cells by luciferase reporter gene assay

[5] = molecular target: T2, Mineralocorticoid receptor; remark: listed apart in the source
Description: Displacement of [3H]-aldosterone to human mineralocorticoid receptor LBD by radiometric binding assay

SMILES	logD [1]	Ki (Glucocorticoid receptor)	Papp at 10 µM [2]	hepatocyte CLint at 1 µM [3]	IC50 [4]	Ki [5]
C[C@@H]1CN(c2ccc3c(n2)NC(=O)CO3)[C@H](c2ccccc2)CO1	2.7	–	–	–	–	–
O=c1[nH]c2ccc(/C=C3\c4ccccc4COc4cc(F)ccc43)cc2[nH]1	4	–	–	–	–	–
NC(=O)C[C@H]1COc2cc(Cl)ccc2N1C(=O)c1ccc2c(c1)NC(=O)CO2	1.7	31.6 nM	5.6 ×10⁻⁶ cm/s	1.5 µL/min/1e6 cells	–	–
CNC(=O)C[C@H]1COc2cc(F)c(OC(C)C)cc2N1C(=O)c1ccc2c(c1)NC(=O)CO2	1.8	79.4 nM	–	< 2 µL/min/1e6 cells	200 nM	10 nM
NS(=O)(=O)C[C@H]1COc2cc(F)ccc2N1C(=O)c1ccc2cc[nH]c2c1	2.3	631 nM	–	3.6 µL/min/1e6 cells	251 nM	50.1 nM
O=C1COc2ccc(C(=O)N3c4cc(CC5CCCCC5)c(F)cc4OC[C@@H]3CCO)cc2N1	> 4.4	200 nM	–	26 µL/min/1e6 cells	251 nM	10 nM
CNC(=O)C[C@H]1COc2cc(C(F)(F)F)ccc2N1C(=O)c1ccc2c(c1)NC(=O)CO2	2.4	398 nM	19 ×10⁻⁶ cm/s	3 µL/min/1e6 cells	79.4 nM	12.6 nM
CNC(=O)C[C@H]1COc2ccccc2N1C(=O)c1ccc2c(c1)NC(=O)CO2	1.1	3160 nM	6.8 ×10⁻⁶ cm/s	< 1 µL/min/1e6 cells	–	–
CNC(=O)C[C@H]1COc2cc(F)c(CC(C)C)cc2N1C(=O)c1ccnc(NC(N)=O)c1	2.2	126 nM	–	6.1 µL/min/1e6 cells	100 nM	7.94 nM
CC(C)Cc1cc2c(cc1F)OC[C@H](CS(N)(=O)=O)N2C(=O)c1ccc2c(c1)NC(=O)CO2	2.8	1.58 nM	–	18 µL/min/1e6 cells	0.794 nM	< 0.316 nM
CNC(=O)C[C@@H]1COc2cc(F)ccc2N1C(=O)c1ccc2c(c1)NC(=O)CO2	1.3	–	6.2 ×10⁻⁶ cm/s	< 1 µL/min/1e6 cells	–	–
NC(=O)C[C@H]1COCc2cc(F)ccc2N1C(=O)c1ccc2c(c1)NC(=O)CO2	0.4	> 15800 nM	< 0.6 ×10⁻⁶ cm/s	< 1 µL/min/1e6 cells	> 10000 nM	> 10000 nM
CC(C)Cc1cc2c(cc1Cl)OC[C@H](CC(N)=O)N2C(=O)c1ccc2c(c1)NC(=O)CO2	3.3	1.26 nM	–	11 µL/min/1e6 cells	2.51 nM	0.501 nM
CNC(=O)C[C@H]1COc2cc(Cl)cc(C)c2N1C(=O)c1ccc2c(c1)NC(=O)CO2	1.2	> 12600 nM	7.8 ×10⁻⁶ cm/s	2.5 µL/min/1e6 cells	2000 nM	398 nM
NC(=O)C[C@H]1COc2cc(F)ccc2N1C(=O)c1ccc2c(c1)NC(=O)CO2	1.1	631 nM	3 ×10⁻⁶ cm/s	< 1 µL/min/1e6 cells	–	–
CNC(=O)C[C@H]1COc2cc(C)ccc2N1C(=O)c1ccc2c(c1)NC(=O)CO2	1.6	316 nM	14 ×10⁻⁶ cm/s	2.8 µL/min/1e6 cells	100 nM	3.98 nM
CNC(=O)C[C@H]1COc2cc(C#N)ccc2N1C(=O)c1ccc2c(c1)NC(=O)CO2	0.9	> 12600 nM	1.5 ×10⁻⁶ cm/s	< 1 µL/min/1e6 cells	6310 nM	1000 nM
NC(=O)C[C@H]1CNc2cc(Cl)ccc2N1C(=O)c1ccc2c(c1)NC(=O)CO2	1.5	316 nM	< 0.81 ×10⁻⁶ cm/s	< 1 µL/min/1e6 cells	126 nM	7.94 nM
CNC(=O)C[C@H]1COc2cc(F)c(CC(C)C)cc2N1C(=O)c1ccc2c(c1)NC(=O)CO2	3.1	7.94 nM	–	13 µL/min/1e6 cells	20 nM	0.631 nM
Cc1ccc2c(c1)OC[C@](C)(CS(C)(=O)=O)N2C(=O)c1ccc2c(c1)NC(=O)CO2	1.8	1000 nM	38 ×10⁻⁶ cm/s	60 µL/min/1e6 cells	63.1 nM	15.8 nM
NS(=O)(=O)C[C@H]1COc2cc(F)ccc2N1C(=O)c1ccc2c(c1)NCCO2	1.3	1260 nM	–	< 1 µL/min/1e6 cells	200 nM	39.8 nM
CS(=O)(=O)C[C@H]1COc2cc(F)ccc2N1C(=O)c1ccc2c(c1)NC(=O)CO2	1.4	20 nM	10 ×10⁻⁶ cm/s	8 µL/min/1e6 cells	2.51 nM	0.316 nM
CNC(=O)C[C@H]1COc2cc(Br)ccc2N1C(=O)c1ccc2c(c1)NC(=O)CO2	2.2	126 nM	23 ×10⁻⁶ cm/s	5 µL/min/1e6 cells	–	–
N=C(c1ccc2c(c1)NC(=O)CO2)[C@@H](Sc1nnc[nH]1)c1ccccc1	2.4	–	–	–	–	501 nM
NC(=O)C[C@H]1COc2cc(F)c(C3CC3)cc2N1C(=O)c1ccc2c(c1)NC(=O)CO2	2	2.51 nM	–	< 2 µL/min/1e6 cells	79.4 nM	3.16 nM
CNC(=O)C[C@H]1COc2cc(F)ccc2N1C(=O)c1ccc2c(c1)NC(=O)OC2	0.9	> 15800 nM	–	< 1 µL/min/1e6 cells	> 10000 nM	> 6310 nM
